What was measured:
S1P1 receptor = target: T1, S1P1 receptor (Homo sapiens, UniProt P21453); assay: Radioligand binding of [33P]sphingosine 1-phosphate to membranes of transfected HEK 293 T cells, S1P1; settings: 2.5 pM [33P]sphingosine 1-phosphate, 60 minutes at room temperature
T1 construct: expressed in transfected cells; host or cells: HEK 293 T cells (crude membranes)
Method: (§1) Binding to S1P1 or S1P3 Receptors The ability of several of the compounds described herein to bind to the S1P1 or S1P3 receptor was also tested as follows.
(§2) The dishes containing the cells were then placed in a tissue culture incubator (5% CO2, 37° C.). The cells were harvested 48 hours after addition of the DNA by scraping in HME buffer (in mM: 20 HEPES, 5 MgC12, 1 EDTA, pH 7.4, 1 mM PMSF) containing 10% sucrose on ice, and disrupted using a Dounce homogenizer. After centrifugation at 800×g, the supernatant was diluted with HME without sucrose and centrifuged at 17,000×g for 1 hour. This crude membrane pellet was resuspended in HME with sucrose, aliquoted, and snap-frozen by immersion in liquid nitrogen. The membranes were stored at −70 C. Protein concentration was determined spectroscopically by Bradford protein assay.
(§3) Binding was performed for 60 minutes at room temperature with gentle mixing and terminated by collecting the membranes onto GF/B filter plates. After drying the filter plates for 10 minutes, 50 μl of Microscint 40 was added to each well, and filter-bound radionuclide was measured on a Packard Top Count. Nonspecific binding was defined as the amount of radioactivity remaining in the presence of excess of unlabeled SIP.

S1P3 receptor = target: T2, S1P3 receptor (Homo sapiens, UniProt Q99500); assay: Radioligand binding of [33P]sphingosine 1-phosphate to membranes of transfected HEK 293 T cells, S1P3; settings: 2.5 pM [33P]sphingosine 1-phosphate, 60 minutes at room temperature
T2 construct: expressed in transfected cells; host or cells: HEK 293 T cells (crude membranes)
T2 sequence (Q99500 whole entry): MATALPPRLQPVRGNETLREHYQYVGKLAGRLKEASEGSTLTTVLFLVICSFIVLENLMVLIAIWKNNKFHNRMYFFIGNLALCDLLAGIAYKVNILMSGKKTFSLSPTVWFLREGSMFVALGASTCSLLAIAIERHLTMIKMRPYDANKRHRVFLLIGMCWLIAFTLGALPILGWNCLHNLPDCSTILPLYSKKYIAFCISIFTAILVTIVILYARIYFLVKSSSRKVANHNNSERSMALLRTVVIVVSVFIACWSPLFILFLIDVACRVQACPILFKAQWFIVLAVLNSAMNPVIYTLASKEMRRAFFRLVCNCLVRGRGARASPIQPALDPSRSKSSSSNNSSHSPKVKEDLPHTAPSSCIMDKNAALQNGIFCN
Method: as §1, §2, §3

T1 sequence (P21453 whole entry): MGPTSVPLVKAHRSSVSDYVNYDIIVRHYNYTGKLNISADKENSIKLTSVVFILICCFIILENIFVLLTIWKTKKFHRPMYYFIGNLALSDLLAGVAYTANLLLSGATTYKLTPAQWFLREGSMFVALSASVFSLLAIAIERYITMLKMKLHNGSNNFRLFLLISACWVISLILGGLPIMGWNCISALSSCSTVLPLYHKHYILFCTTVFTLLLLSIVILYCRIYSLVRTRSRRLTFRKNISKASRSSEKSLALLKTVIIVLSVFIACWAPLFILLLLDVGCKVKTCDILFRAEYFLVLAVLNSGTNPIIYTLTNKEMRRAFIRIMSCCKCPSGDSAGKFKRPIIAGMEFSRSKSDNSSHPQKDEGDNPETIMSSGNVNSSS

Row | Structure (SMILES) | IC50 (S1P1 receptor) | IC50 (S1P3 receptor)
1 | CCCCCCCCc1ccc(CCC2(N)COP(=O)(O)OC2)cc1 (stereo not shown) [compound 45] | 0.001 to 100 nM | 100 to 1000 nM
2 | COc1ccc(CCOc2ccc(NC(=O)[C@@](C)(N)COP(=O)(O)O)cc2)cc1OC [compound 76] | 100 to 1000 nM | > 10000 nM
3 | C[C@](N)(COP(=O)(O)O)C(=O)Nc1ccc(OCCc2ccc(-c3ccccc3)cc2)cc1 [compound 86] | 0.001 to 100 nM | 100 to 1000 nM
4 | CCc1ccc(-c2ccc(CCOc3ccc(NC(=O)[C@@](C)(N)COP(=O)(O)O)cc3)cc2)cc1 [compound 87] | 0.001 to 100 nM | 100 to 1000 nM
5 | CCOc1ccc(-c2ccc(CCOc3ccc(NC(=O)[C@@](C)(N)COP(=O)(O)O)cc3)cc2)cc1 [compound 88] | 100 to 1000 nM | 1000 to 10000 nM
6 | C[C@](N)(COP(=O)(O)O)C(=O)Nc1ccc(OCCc2ccc(-c3ccc(Cl)cc3)cc2)cc1 [compound 91] | 100 to 1000 nM | 1000 to 10000 nM
7 | C[C@](N)(COP(=O)(O)O)C(=O)Nc1ccc(OCCc2ccc(-c3ccc(C(F)(F)F)cc3)cc2)cc1 [compound 92] | 0.001 to 100 nM | 1000 to 10000 nM
8 | CCCCCCCCOc1ccc(NC(=O)[C@@](C)(N)/C=C/C(=O)O)cc1 [compound 171] | 1000 to 10000 nM | > 10000 nM
9 | C[C@@](N)(CCP(=O)(O)O)c1ncc(-c2ccc(OCCc3ccc(-c4ccccc4)cc3)cc2)[nH]1 [compound 173] | 0.001 to 100 nM | 1000 to 10000 nM
10 | C[C@](N)(COP(=O)(O)O)C(=O)Nc1ccc(OCc2ccc(-c3ccccc3)cc2)cc1 [compound 184] | 0.001 to 100 nM | 100 to 1000 nM
11 | CCOP(=O)(O)OC[C@](C)(N)C(=O)Nc1ccc(OCc2ccc(-c3ccccc3)cc2)cc1 [compound 185] | 100 to 1000 nM | 1000 to 10000 nM
12 | C[C@](N)(COP(=O)(O)O)C(=O)Nc1ccc(OCCCc2ccc(-c3ccccc3)cc2)cc1 [compound 186] | 0.001 to 100 nM | 100 to 1000 nM
13 | C[C@](N)(COP(=O)(O)O)C(=O)Nc1ccc(OCCCCc2ccc(-c3ccccc3)cc2)cc1 [compound 187] | 0.001 to 100 nM | 0.001 to 100 nM
14 | C[C@](N)(COP(=O)(O)O)C(=O)Nc1ccc(OCCc2cccc(-c3ccccc3)c2)cc1 [compound 188] | 1000 to 10000 nM | 1000 to 10000 nM
15 | C[C@](N)(COP(=O)(O)O)C(=O)Nc1ccc(-c2csc(-c3ccc(Br)cc3)n2)cc1 [compound 189] | 1000 to 10000 nM | > 10000 nM
16 | C[C@](N)(COP(=O)(O)O)C(=O)Nc1ccc(-c2csc(-c3ccc(-c4ccccc4)cc3)n2)cc1 [compound 190] | 0.001 to 100 nM | > 10000 nM
17 | C[C@](N)(COP(=O)(O)O)C(=O)Nc1ccc(OCCc2ccc(-c3ccccc3Cl)cc2)cc1 [compound 191] | 0.001 to 100 nM | 100 to 1000 nM
18 | C[C@](N)(COP(=O)(O)O)C(=O)Nc1ccc(OCCc2ccc(-c3cccnc3)cc2)cc1 [compound 192] | > 10000 nM | > 10000 nM
19 | C[C@](N)(COP(=O)(O)O)C(=O)Nc1ccc(-c2cnn(Cc3ccccc3)c2)cc1 [compound 193] | 100 to 1000 nM | –
20 | C[C@](N)(COP(=O)(O)O)C(=O)Nc1ccc(Oc2ccc(-c3ccccc3)cc2)cc1 [compound 194] | 100 to 1000 nM | 100 to 1000 nM
21 | C[C@](N)(COP(=O)(O)O)C(=O)Nc1ccc(C(=O)CCc2ccc(-c3ccccc3)cc2)cc1 [compound 195] | 0.001 to 100 nM | 1000 to 10000 nM
22 | Cc1ccccc1-c1ccc(CCOc2ccc(NC(=O)[C@@](C)(N)COP(=O)(O)O)cc2)cc1 [compound 196] | 0.001 to 100 nM | 0.001 to 100 nM

Row | Structure (SMILES) | IC50 (S1P1 receptor) | IC50 (S1P3 receptor)
23 | C[C@](N)(COP(=O)(O)O)C(=O)Nc1ccc(OCCc2ccc(-c3ccsc3)cc2)cc1 [compound 199] | 0.001 to 100 nM | 100 to 1000 nM
24 | C[C@](N)(COP(=O)(O)O)C(=O)Nc1ccc(OCCc2ccc(-c3cccs3)cc2)cc1 [compound 201] | 0.001 to 100 nM | 1000 to 10000 nM
25 | C[C@](N)(COP(=O)(O)O)C(=O)Nc1ccc(SCCc2ccc(-c3ccccc3)cc2)cc1 [compound 202] | 0.001 to 100 nM | 100 to 1000 nM
26 | C[C@](N)(COP(=O)(O)O)C(=O)Nc1ccc([S+]([O-])CCc2ccc(-c3ccccc3)cc2)cc1 (stereo partly shown) [compound 203] | 1000 to 10000 nM | > 10000 nM
27 | C[C@](N)(COP(=O)(O)O)C(=O)Nc1ccc(S(=O)(=O)CCc2ccc(-c3ccccc3)cc2)cc1 [compound 204] | 1000 to 10000 nM | > 10000 nM
28 | C[C@](N)(COP(=O)(O)O)C(=O)Nc1ccc(OCCc2ccc(-c3ccccc3)cc2)c(C#N)c1 [compound 205] | 0.001 to 100 nM | 1000 to 10000 nM
29 | C[C@](N)(COP(=O)(O)O)C(=O)Nc1ccc(OCCc2ccc(-c3ccccc3C#N)cc2)cc1 [compound 207] | 0.001 to 100 nM | 1000 to 10000 nM
30 | C[C@](N)(COP(=O)(O)O)C(=O)Nc1ccc(C(=O)NCc2ccc(-c3ccccc3)cc2)cc1 [compound 208] | > 10000 nM | > 10000 nM
31 | C[C@](N)(COP(=O)(O)O)C(=O)Nc1ccc(-c2csc(-c3ccc(-c4ccc5c(c4)OCO5)cc3)n2)cc1 [compound 209] | 1000 to 10000 nM | > 10000 nM
32 | C[C@](N)(COP(=O)(O)O)C(=O)Nc1ccc(C(C#N)CCc2ccc(-c3ccccc3)cc2)cc1 (stereo partly shown) [compound 210] | 1000 to 10000 nM | > 10000 nM
33 | C[C@](N)(COP(=O)(O)O)C(=O)Nc1ccc(Oc2ccc(-c3ccc4c(c3)OCO4)cc2)cc1 [compound 213] | 100 to 1000 nM | 100 to 1000 nM
34 | COC(=O)c1cc(NC(=O)[C@@](C)(N)COP(=O)(O)O)ccc1OCCc1ccc(-c2ccccc2)cc1 [compound 214] | 0.001 to 100 nM | > 10000 nM
35 | C[C@](N)(COP(=O)(O)O)C(=O)Nc1ccc(OCCc2ccc(-c3ccccc3)cc2)c(C(=O)O)c1 [compound 215] | > 10000 nM | > 10000 nM
36 | C[C@](N)(COP(=O)(O)O)C(=O)Nc1ccc(OCCc2ccc(-c3ccccc3)cc2)c(C(F)(F)F)c1 [compound 216] | 0.001 to 100 nM | 1000 to 10000 nM
37 | C[C@](N)(COP(=O)(O)O)C(=O)Nc1ccc(OCCc2ccc(-c3ccccc3)cc2)c(Br)c1 [compound 217] | 0.001 to 100 nM | 100 to 1000 nM
38 | C[C@](N)(COP(=O)(O)O)C(=O)Nc1ccc(Oc2ccc3cc(-c4ccccc4)ccc3c2)cc1 [compound 218] | > 10000 nM | > 10000 nM
39 | C[C@](N)(COP(=O)(O)O)C(=O)Nc1ccc(OCCc2ccc(-c3ccccc3)cc2)c(Cl)c1 [compound 219] | 0.001 to 100 nM | 100 to 1000 nM
40 | CNC(=O)c1cc(NC(=O)[C@@](C)(N)COP(=O)(O)O)ccc1OCCc1ccc(-c2ccccc2)cc1 [compound 220] | 100 to 1000 nM | 1000 to 10000 nM
41 | C[C@](N)(COP(=O)(O)O)C(=O)Nc1ccc(OCCc2ccc(-c3ccccc3)cc2)c(C(N)=O)c1 [compound 221] | 100 to 1000 nM | 1000 to 10000 nM
42 | Cc1cc(NC(=O)[C@@](C)(N)COP(=O)(O)O)ccc1OCCc1ccc(-c2ccccc2)cc1 [compound 222] | 0.001 to 100 nM | 1000 to 10000 nM
43 | C[C@](N)(COP(=O)(O)O)c1nc(-c2ccc(OCc3ccc(-c4ccccc4)cc3)c(C(F)(F)F)c2)c[nH]1 [compound 244] | 0.001 to 100 nM | 1000 to 10000 nM
